Calls of active or inactive are those of the source.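 The calls were made as follows: active = IC50 below 20 µM in the dose response test; inactive = the rest.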
Target: Type-1 angiotensin II receptor (Homo sapiens) (UniProt P30556)
Assay: AT1 receptor antagonists, beta-arrestin recruitment, SAR follow-up, selectivity assay for APJ antagonist project, cell-based, CHO-K1 PathHunter, luminescence, set 3 (AID 492984)
Details: CHO-K1 AGTR1 PathHunter beta-arrestin

Sequence of Type-1 angiotensin II receptor (Homo sapiens) (P30556 whole entry, looked up): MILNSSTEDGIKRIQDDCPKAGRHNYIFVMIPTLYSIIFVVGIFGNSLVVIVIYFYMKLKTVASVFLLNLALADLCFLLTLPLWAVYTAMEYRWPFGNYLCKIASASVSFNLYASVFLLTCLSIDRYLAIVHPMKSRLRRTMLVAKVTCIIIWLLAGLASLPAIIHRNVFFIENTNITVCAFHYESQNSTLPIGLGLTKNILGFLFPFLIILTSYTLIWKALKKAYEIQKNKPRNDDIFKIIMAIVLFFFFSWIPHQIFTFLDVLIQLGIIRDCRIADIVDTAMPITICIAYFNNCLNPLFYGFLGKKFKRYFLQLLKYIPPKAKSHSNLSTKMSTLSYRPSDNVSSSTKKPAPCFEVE

Compound | IC50
Cc1ccnc(SCc2cc(=O)c(OC(=O)c3cccc(C#N)c3)co2)n1 | > 79 µM (inactive)
O=C(Oc1coc(CCl)cc1=O)c1ccc(Cl)c([N+](=O)[O-])c1 | > 79 µM (inactive)
O=C(Oc1coc(CSc2ncccn2)cc1=O)c1ccc([N+](=O)[O-])cc1 | > 79 µM (inactive)
O=c1cc(CSc2ccc(F)cc2)occ1O | > 79 µM (inactive)
Cc1ccnc(SCc2cc(=O)c(NC(=O)c3ccccc3)co2)n1 | > 79 µM (inactive)

The next lines start with the values.

IC50 | Compound
> 79 µM (inactive) | Cc1cc(C)nc(SCc2cc(=O)c(OS(=O)(=O)c3ccc([N+](=O)[O-])cc3)co2)n1
> 79 µM (inactive) | Cc1cc(C)nc(SCc2cc(=O)c(OS(=O)(=O)c3ccccc3)co2)n1
